According to US11089805B2, “Mucosal immunomodulator” (Yamada Bee Company, Inc., priority 2016, dated 2021):

What was measured:
[1] = tested on: Caco-2 cells; test: M-cell differentiation induction test, in vitro (FACS analysis of GP2 expression); settings: for effect on expression of GP2 (in words): Caco-2 cells, 100 μM, 3 days, FACS; for fold induction at 100 µM: Homo sapiens, Caco-2, 72 h, read-out: GP2 Expression Level (relative value when DMSO = 1)
[2] = tested on: anti-Fetuin, anti-poliovirus and anti-influenza virus IgA antibody titer in the feces; design: species or system cynomolgus monkeys (Macaca fascicularis); settings: cynomolgus monkey, in vivo
[3] = tested on: Caco-2 cells; test: Morphological analysis by electron microscope; type: cell-based, human; settings: Caco-2 single-layer film in Transwell, final concentration 100 μm, apical side, 3 days
Source text: M cells generally have the morphological characteristics that microvilli on the apical side are shorter than those of epithelial cells in the vicinity thereof.

SMILES: O=C(O)CCCCCCCCCO [10-Hydroxydecanoic Acid, 10-hydroxydecanoic acid]
- effect on expression of GP2 (in words) [1]: induced the expression of GP2
- fold induction at 100 µM [1]: 2.63
- anti-Fetuin IgA antibody titer in the feces [2]: increases
- anti-influenza virus IgA antibody titer in the feces [2]: increases
- anti-poliovirus IgA antibody titer in the feces [2]: increases
- cell morphology (microvilli) by electron microscope [3]: cells with short microvilli were observed

SMILES: C[C@@H](O)CCCCC/C=C/C(=O)O [Formula (4), (2E,9R)-9-hydroxy-2-decenoic acid]
- effect on expression of GP2 (in words) [1]: induced the expression of GP2
- fold induction at 100 µM [1]: 1.72

SMILES: COC(=O)/C=C/CCCCC[C@@H](O)CO [Formula (5), (2E,9R)-methyl-9,10-dihydroxy-2-decenoate]
- effect on expression of GP2 (in words) [1]: intensely induced the expression of GP2
- fold induction at 100 µM [1]: 2.46

SMILES: O=C(O)/C=C/CCCCCCC[C@@H](O)CO [Formula (6), (2E,11R)-11,12-dihydroxy-2-dodecenoic acid]
- effect on expression of GP2 (in words) [1]: intensely induced the expression of GP2
- fold induction at 100 µM [1]: 4.03

SMILES: O=C(O)CC(O)CCCCCCCO (stereo not shown) [Formula (7), (2E)-3,10-dihydroxy-decanoic acid]
- effect on expression of GP2 (in words) [1]: induced the expression of GP2
- fold induction at 100 µM [1]: 1.48

SMILES: O=C(O)CCCCCCCCC(=O)O [Formula (8), sebacic acid]
- effect on expression of GP2 (in words) [1]: induced the expression of GP2
- fold induction at 100 µM [1]: 1.45

SMILES: O=C(O)/C=C/CCC[C@@H](O)CO [Formula (9), (2E,7R)-7,8-dihydroxy-2-octenoic acid]
- effect on expression of GP2 (in words) [1]: suppressed the expression of GP2
- fold induction at 100 µM [1]: 0.75

SMILES: O=C(O)/C=C\CCCCC[C@@H](O)CO [Formula (10), (2Z,9R)-9,10-dihydroxy-2-decenoic acid]
- effect on expression of GP2 (in words) [1]: suppressed the expression of GP2
- fold induction at 100 µM [1]: 0.83

SMILES: CC(=O)OCCCC/C=C/C(=O)O [Formula (11), (2E)-7-acetoxy-2-heptenoic acid]
- effect on expression of GP2 (in words) [1]: intensely suppressed the expression of GP2
- fold induction at 100 µM [1]: 0.16

SMILES: CC(=O)OC[C@@H](CCCCC/C=C/C(=O)O)OC(C)=O [Formula (12), (2E,9R)-9,10-diacetoxy-2-decenoic acid]
- effect on expression of GP2 (in words) [1]: intensely suppressed the expression of GP2
- fold induction at 100 µM [1]: 0.48

SMILES: O=C(O)/C=C/CCCCC[C@H](O)CO [Formula (13), (2E,9S)-9,10-dihydroxy-2-decenoic acid]
- effect on expression of GP2 (in words) [1]: intensely suppressed the expression of GP2
- fold induction at 100 µM [1]: 0.39

SMILES: CCCCCC(O)C(O)/C=C/C(O)CCCCCCCC(=O)O [Formula (14), 9(S),12(S),13(S)-trihydroxy-10(E)-octadecenoic acid]
- effect on expression of GP2 (in words) [1]: suppressed the expression of GP2
- fold induction at 100 µM [1]: 0.74
